Measured values as given in patent US9050266B2, “Phenol derivatives and pharmaceutical or cosmetic use thereof” (GALDERMA RESEARCH & DEVELOPMENT, priority 2009, dated 2015).

Columns and labels:
[1] = molecular target: T1, receptors of AR type (androgen receptor) (Homo sapiens, UniProt P10275); test: AR transactivation test in the PALM (PC3 Androgen receptor Luciferse MMTV) cell line, cross curves against methyltrienolone; type: cell-based; details: cross curves vs reference agonist methyltrienolone, read-out: Kdapp (apparent dissociation constant)
T1 construct: expressed in transfected cells; host or cells: PALM cell line (PC3 stably transfected with PMMTV-neo-Luc and pSG5puro-AR)
T1 sequence (P10275 1-920): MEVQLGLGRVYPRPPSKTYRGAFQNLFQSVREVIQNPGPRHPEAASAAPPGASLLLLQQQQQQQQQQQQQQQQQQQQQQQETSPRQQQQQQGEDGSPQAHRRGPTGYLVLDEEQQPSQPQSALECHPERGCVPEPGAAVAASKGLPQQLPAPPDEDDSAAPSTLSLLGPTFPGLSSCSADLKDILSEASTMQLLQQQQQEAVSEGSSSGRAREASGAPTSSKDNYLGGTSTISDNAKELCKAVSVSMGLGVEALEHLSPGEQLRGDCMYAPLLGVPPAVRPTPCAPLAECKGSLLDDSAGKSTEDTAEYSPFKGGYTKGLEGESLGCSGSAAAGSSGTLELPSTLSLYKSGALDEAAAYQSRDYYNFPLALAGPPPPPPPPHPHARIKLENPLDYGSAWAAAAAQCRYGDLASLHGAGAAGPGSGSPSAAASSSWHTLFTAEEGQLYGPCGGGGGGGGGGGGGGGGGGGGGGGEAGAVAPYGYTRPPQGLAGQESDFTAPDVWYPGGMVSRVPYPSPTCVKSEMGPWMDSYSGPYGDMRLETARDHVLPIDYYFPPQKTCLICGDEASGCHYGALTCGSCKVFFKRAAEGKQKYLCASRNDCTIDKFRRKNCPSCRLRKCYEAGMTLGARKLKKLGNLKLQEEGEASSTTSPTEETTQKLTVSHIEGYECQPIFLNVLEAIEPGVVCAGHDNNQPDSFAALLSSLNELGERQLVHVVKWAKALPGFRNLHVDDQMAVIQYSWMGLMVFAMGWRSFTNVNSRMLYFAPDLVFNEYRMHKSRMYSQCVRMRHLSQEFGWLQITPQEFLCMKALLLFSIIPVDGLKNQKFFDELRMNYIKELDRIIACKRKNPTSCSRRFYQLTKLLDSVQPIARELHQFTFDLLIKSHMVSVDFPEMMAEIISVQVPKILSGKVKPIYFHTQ
Method: The compounds according to the invention show inhibitory properties on receptors of AR type. This AR receptor-inhibiting activity is measured in a transactivation test through the KdR (resting), KdA (active) and Kdapp (apparent) dissociation constants according to the method set out in J. Molecular Biology (1965), 12(1), 88-118, Monod J. et al.
The expression “AR-type receptor inhibitor” means, according to the invention, any compound which has a Kdapp dissociation constant of less than or equal to 1 μM, and a KdR/KdA ratio ≦10, in a transactivation test.
The transactivation test is carried out in the PALM (PC3 Androgen receptor Luciferse MMTV) cell line which is a stable transfectant containing the PMMTV-neo-Luc (reporter gene) and pSG5puro-AR plasmids.
In this study, the affinity of each product for the 2 receptor states (KdR and KdA) is determined, as is an apparent Kd (KdApp). This constant is a result of the 2 Kd, but also depends on the initial equilibrium of the receptor between the active state and the resting state (L0) and on its expression level. It is determined by means of the following formula: 1/KdApp=(L0/(1+L0))×(1/KdR)+(1/(1+L0))×(1/KdA)
To determine these constants, “cross curves” of the test product against a reference agonist, methyltrienolone, are produced in 96-well plates. The test product is used at 10 concentrations and the reference agonist at 7 concentrations.

Compound | Kd [1] | melting point
Oc1ccccc1CNc1cncc(Br)n1 [Example 13, 2-[(6-Bromopyrazin-2-ylamino)methyl]phenol] |  | 168 °C
Cc1cc(Cl)nc(NCc2ccccc2O)c1 [Example 18, 2-[(6-chloro-4-methyl-pyridin-2-ylamino)-methyl]-phenol] | 1000 nM | 
COc1cncc(NCc2ccccc2O)n1 [Example 19, 2-[(6-Methoxypyrazin-2-ylamino)methyl]phenol] | 8 nM | 158 °C
COc1nccc(NCc2ccccc2O)n1 [Example 20, 2-[(2-Methoxypyrimidin-4-ylamino)methyl]phenol] |  | 161 °C

More lines, now with the values ahead:

Kd [1] | melting point | Compound
40 nM | 103 °C | COc1cccc(NCc2ccccc2O)n1 [Example 1, 2-[(6-Methoxypyridin-2-ylamino)methyl]phenol]
2 nM |  | Oc1ccccc1CNc1cccc(Br)n1 [Example 2, 2-[(6-bromo-pyridin-2-ylamino)-methyl]-phenol]
200 nM |  | N#Cc1cccc(NCc2ccccc2O)n1 [Example 4, 6-(2-hydroxy-benzyl-amino)-pyridine-2-carbonitrile]
 | 61 °C | CSc1cccc(NCc2ccccc2O)n1 [Example 22, 2-[(6-Methylsulphanylpyridin-2-ylamino)methyl]phenol]
 | 133 °C | C[S+]([O-])c1cccc(NCc2ccccc2O)n1 (centres unmarked) [Example 23, 2-[(6-Methanesulphinylpyridin-2-ylamino)methyl]phenol]
